# Reference: article PMC9578143, “Small-Molecule Ebselen Binds to YTHDF Proteins Interfering with the Recognition of N^6-Methyladenosine-Modified RNAs” (ACS Pharmacology & Translational Science, 2022)
# Entries after “also recorded” stand apart in the source; their conditions may differ.
# Key:
# [1] = system: m6A-mRNAs (CREBBP, YTHDF2, GATA2, HNRNPF) in PC-3 cells; assay: m6A mRNA stability measurement with actinomycin D; format: cell-based, human; conditions: 4 h co-treatment with actinomycin D, versus DMSO, listed as ebselen
# Description: PC-3 cells were plated on a six-well dish. At 70–80% confluency, cells were treated with […] actinomycin D or vehicle (DMSO) to inhibit transcription in combination with 50 μM ebselen for 4 h before collection. As a control, cells were treated with actinomycin D or vehicle (DMSO) for 4 h. Total RNA was isolated from cells using TRIzol according to the manufacturer’s instructions. For each condition, the same amount of total RNA was reverse-transcribed to cDNA (2 μg) using the SuperScript IV First-Strand kit. Oligo-dT primers were used during the cDNA synthesis step. This allowed us to selectively convert to cDNA the amount of intact RNA still present in cells upon actinomycin D treatment while avoiding the conversion of fragmented RNA to cDNA. qRT-PCR experiments were performed in duplicates and normalized on a stable mRNA, GAPDH.
# [2] = target: T1, YTH domain of YTHDF1 / biotinylated RNA probe 5′-Bi-CCGAm6ACUGUC-3′ (Homo sapiens, UniProt Q9BYJ9); assay: AlphaScreen competitive assay, saturation binding; conditions: 50 nM RNA, 50 nM protein, compound 0–100 μM
# T1 construct: The human YTHDF1 YTH domain (amino acids 365–554, PDB: 4RCJ); host or cells: E. coli BL21(DE3)
# T1 sequence (Q9BYJ9 365-554): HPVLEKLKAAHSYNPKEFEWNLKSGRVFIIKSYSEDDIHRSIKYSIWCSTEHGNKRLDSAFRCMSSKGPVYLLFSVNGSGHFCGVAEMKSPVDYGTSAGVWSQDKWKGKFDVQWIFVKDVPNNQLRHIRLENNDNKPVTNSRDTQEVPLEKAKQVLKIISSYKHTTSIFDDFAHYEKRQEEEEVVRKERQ
# Description: The Amplified Luminescent Proximity Homogeneous Assay (ALPHA Assay) was performed in white 384-well Optiplates (PerkinElmer) in a final volume of 20 μL, and it was first optimized by titrating both the protein and the biotinylated RNA probe (5′-Bi-CCGAm6ACUGUC-3′, Dharmacon) to find the appropriate right protein/RNA ratio before the saturation of the detection signal. […] Anti-His acceptor beads (PerkinElmer) (20 μg/mL final concentration) and streptavidin donor beads (20 μg/mL final concentration) were added and the reaction was incubated in the dark at room temperature for 1 h to reach equilibrium. Light signals were detected with an Enspire Multimode Plate reader (PerkinElmer). […] The IC50 of ebselen was determined from the nonlinear regression fits of the data.
# [3] = target: T2, recombinant YTH domain of the YTHDF1 protein (Homo sapiens, UniProt Q9BYJ9); assay: ESI-MS of the protein after incubation with the compound; format: binding
# T2 construct: The human YTHDF1 YTH domain (amino acids 365–554, PDB: 4RCJ); host or cells: E. coli BL21(DE3)
# T2 sequence (Q9BYJ9 365-554): T1 sequence (Q9BYJ9 365-554)
# YTHDF1 in HEK293T cells = target: T3, YTHDF1 in HEK293T cells (Homo sapiens, UniProt Q9BYJ9); assay: Cellular thermal shift assay (CETSA); format: cell-based; conditions: 50 μM, 3 h, versus DMSO, listed as Ebselen
# T3 construct: endogenous in cells; host or cells: HEK293T
# T3 sequence (Q9BYJ9 1-559): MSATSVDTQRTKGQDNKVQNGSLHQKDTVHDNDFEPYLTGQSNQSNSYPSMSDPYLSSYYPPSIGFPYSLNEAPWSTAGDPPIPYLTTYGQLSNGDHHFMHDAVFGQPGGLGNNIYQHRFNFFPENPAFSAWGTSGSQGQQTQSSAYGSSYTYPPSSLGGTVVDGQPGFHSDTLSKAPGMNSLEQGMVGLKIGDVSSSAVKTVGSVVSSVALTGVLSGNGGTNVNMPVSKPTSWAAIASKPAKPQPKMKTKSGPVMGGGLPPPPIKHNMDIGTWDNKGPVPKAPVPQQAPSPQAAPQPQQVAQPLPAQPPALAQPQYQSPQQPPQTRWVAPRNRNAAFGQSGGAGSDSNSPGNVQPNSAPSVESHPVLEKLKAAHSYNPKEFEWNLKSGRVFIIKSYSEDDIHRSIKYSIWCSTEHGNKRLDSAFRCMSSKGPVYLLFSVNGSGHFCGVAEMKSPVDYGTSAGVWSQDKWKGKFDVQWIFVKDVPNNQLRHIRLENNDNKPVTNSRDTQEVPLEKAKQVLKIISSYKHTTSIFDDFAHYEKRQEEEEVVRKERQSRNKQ
# Description: HEK293T cells were seeded on 100 mm cell culture plate/s and allowed to adhere overnight. At 80% of confluency, cells were treated with 50 μM ebselen or DMSO as a control and incubated for 3 h at 37 °C in the CO2 incubator. Cells were centrifuged and resuspended in PBS and the protease inhibitor, at a concentration of (0.5–1) × 10^6 cells /100 μL of suspension. Lysates were divided into 9–10 aliquots of 100 μL into 0.2 mL microcentrifuge tubes and incubated at a temperature gradient on a PCR machine for 3 min. After incubation, lysates were frozen and thawed five times in dry ice and at 27 °C for 3 min each. All tubes were then centrifuged at 4 °C for 20 min at 12,000 rpm. Supernatants were then collected and transferred to clean tubes with a loading buffer 5×, heated for 10 min at 95 °C, and detected with Western Blot. The blot was then plotted with a YTHDF1 (Proteintech, 17479-1-AP) and actin (Cell Signaling, 12620S) primary antibody and subsequently with anti-Rabbit HRP (Santa Cruz, sc-2357) and anti-mouse HRP (Thermo Fisher, 61-6520). Chemiluminescent detection was performed using Amersham ECL Prime (GE Healthcare).
# [4] = system: YTHDF1-3, ALKBH5 and METTL3 in PC-3 cells; assay: Western blot of the epitranscriptome apparatus; format: cell-based, human; conditions: PC-3 cells, 24, 48 and 72 h, 10, 25, 50 μM; listed as ebselen
# Description: Supplementary Figure 4. Protein level of the epitranscriptome apparatus and m6A level in PC-3 cells. (A) Representative western blot of YTHDF1-3, ALKBH5 and METTL3 in PC-3 cells after 24, 48 and 72 hours of ebselen treatment at three doses, 10, 25, 50 µM. (B) Quantification of the relative changes of YTHDF1-3, ALKBH5 and METTL3 in PC-3 cells after 24, 48 and 72 hours of ebselen treatment at three doses, 10, 25, 50 µM. […] Three biological replicates were performed. (C) Quantitative real-time PCR of YTHDF1-3, ALKBH5 and METTL3 in PC-3 cells after 24 hours of ebselen treatment at 10 µM.
# Supplementary Figure 5. Caption: 2F o-Fc map (blue) is contoured at 1s for Ebselen and Cys412 side chain. The selenium anomalous map is contoured at 3.5σ and shown in orange.
# (1 picture or pasted object on this page, not shown here)
compound,measurement,setting,value
"O=c1c2ccccc2[se]n1-c1ccccc1 [Compound 1, 2-phenyl-1,2-benzisoselenazol-3(2H)-one]",Stability of methylated mRNAs (in words),[1],increase in mRNA stability; also recorded: increased the stability of methylated genes
same,IC50,[2],3.565 ± 0.009 µM
same,Mass shift of the YTH domain (ESI-MS),"[3]; 5 μM protein, 50 μM compound, 60 min, no DTT",274.96 Da
same,"Mass of the YTH domain after incubation (ESI-MS, in words)",[3]; in the presence of 1 mM DTT,matched that of the unmodified YTH domain
same,ΔTagg of YTHDF1 (CETSA),YTHDF1 in HEK293T cells,3.48 °C
same,Expression level of the proteins of the epitranscriptome apparatus (in words),[4],No changes were observed
